# Source: ChEMBL document CHEMBL4011652, “Discovery of Novel Potent Reversible and Irreversible Myeloperoxidase Inhibitors Using Virtual Screening Procedure” (J Med Chem, 2017)
# Active and inactive are the calls of the source. The calls are words filed in the database; no cut-off is given here.
# Legend:
# [1] = biological target: T1, Myeloperoxidase (Homo sapiens) (UniProt P05164); test: Inhibition of MPO (unknown origin) assessed as apparent bi-molecular rate constant for PorFe(4)=O radical reduction by stopped-flow spectroscopic analysis
# T1 sequence (whole entry): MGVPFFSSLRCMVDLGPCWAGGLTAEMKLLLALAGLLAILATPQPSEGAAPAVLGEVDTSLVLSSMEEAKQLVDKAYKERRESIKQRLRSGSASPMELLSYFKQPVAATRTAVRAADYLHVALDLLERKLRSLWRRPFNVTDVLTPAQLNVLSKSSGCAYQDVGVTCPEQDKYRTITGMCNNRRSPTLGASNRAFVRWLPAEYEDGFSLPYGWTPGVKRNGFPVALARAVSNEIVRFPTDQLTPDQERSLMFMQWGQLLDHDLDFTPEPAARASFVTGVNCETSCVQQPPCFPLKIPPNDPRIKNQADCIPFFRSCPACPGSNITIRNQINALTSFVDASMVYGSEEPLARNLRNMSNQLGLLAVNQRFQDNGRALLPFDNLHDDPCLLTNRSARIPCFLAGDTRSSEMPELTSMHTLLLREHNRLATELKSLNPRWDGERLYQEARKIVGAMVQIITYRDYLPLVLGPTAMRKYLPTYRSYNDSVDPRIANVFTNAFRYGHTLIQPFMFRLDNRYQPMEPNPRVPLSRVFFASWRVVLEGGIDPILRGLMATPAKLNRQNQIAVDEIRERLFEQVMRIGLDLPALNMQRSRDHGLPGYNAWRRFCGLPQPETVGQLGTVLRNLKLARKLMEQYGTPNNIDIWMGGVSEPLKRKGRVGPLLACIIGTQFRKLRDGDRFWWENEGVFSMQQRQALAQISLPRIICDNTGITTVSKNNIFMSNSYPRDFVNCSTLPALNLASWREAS
# Myeloperoxidase [2] = biological target: T2, Myeloperoxidase (Homo sapiens, UniProt P05164); test: Inhibition of recombinant MPO (unknown origin) assessed as reduction in LDL oxidation in presence of H2O2 and HCl after 5 mins by ELISA
# T2 sequence (P05164 whole entry): T1 sequence (whole entry)
# [3] = biological target: T1, Myeloperoxidase (Homo sapiens); test: Inhibition of recombinant MPO (unknown origin) assessed as reduction in TMB peroxidation by measuring residual activity at 5 uM in absence of H2O2 incubated for 5 mins followed by 100 fold enzyme dilution relative to control
# [4] = biological target: T1, Myeloperoxidase (Homo sapiens); test: Inhibition of recombinant MPO (unknown origin) assessed as reduction in TMB peroxidation by measuring residual activity at 5 uM in presence of H2O2 incubated for 5 mins followed by 100 fold enzyme dilution relative to control
# [5] = biological target: T1, Myeloperoxidase (Homo sapiens); test: Inhibition of recombinant MPO (unknown origin) assessed as reduction in TMB peroxidation by measuring residual activity at 5 uM in presence of H2O2 and NaCl incubated for 5 mins followed by 100 fold enzyme dilution relative to control
# [6] = Selectivity ratio of IC50 for bovine milk LPO to IC50 for recombinant MPO (unknown origin)
# Lactoperoxidase = Lactoperoxidase (Bos taurus, UniProt P80025); test: Inhibition of bovine milk LPO assessed as reduction in NaOSCN production in presence of H2O2/NaSCN after 5 mins
# NHDF = test: Cytotoxicity against NHDF assessed as reduction in cell viability after 72 hrs by MTT assay; format: cell-based; conditions: Homo sapiens
# Myeloperoxidase [7] = biological target: T2, Myeloperoxidase; test: Inhibition of recombinant MPO (unknown origin) assessed as reduction in taurine chloramine production preincubated with enzyme and taurine followed by H2O2 addition measured after 5 mins
# [8] = biological target: T1, Myeloperoxidase (Homo sapiens); test: Inhibition of MPO (unknown origin) assessed as apparent bi-molecular rate constant for PorFe(4)-OH reduction by stopped-flow spectroscopic analysis
# [9] = biological target: T1, Myeloperoxidase (Homo sapiens); test: Inhibition of recombinant MPO (unknown origin) assessed as reduction in taurine chloramine production at 5 uM preincubated with enzyme and taurine followed by H2O2 addition measured after 5 mins relative to control
# Plasma = test: Plasma concentration in po dosed human; format: ADME, organism-based; conditions: in vivo
# Neutrophil [10] = test: Induction of apoptosis in human neutrophils assessed as increase in necrotic cells at >= 50 uM after 30 mins by JC1 staining based flow cytometry; format: cell-based; conditions: 0.5 h
# Neutrophil [11] = test: Induction of apoptosis in human neutrophils up to 1 mM after 30 mins by JC1 staining based flow cytometry; format: cell-based; conditions: 0.5 h
# Myeloperoxidase [12] = biological target: T2, Myeloperoxidase; test: Inhibition of MPO in human neutrophils assessed as reduction in HOCl production preincubated for 30 mins followed by H2O2 addition by APF staining based flow cytometry
# Neutrophil [13] = test: Induction of apoptosis in human neutrophils assessed as compound concentration required for effect after 30 mins by JC1 staining based flow cytometry; format: cell-based; conditions: 0.5 h
# [14] = biological target: T1, Myeloperoxidase (Homo sapiens); conditions: 5 uM
# Description: Irreversible inhibition of recombinant MPO (unknown origin) assessed as reduction in guaiacol peroxidation by measuring enzyme activity recovery at 5 uM incubated for 20 mins followed by 200 fold dilution measured for 10 mins
# [15] = biological target: T1, Myeloperoxidase (Homo sapiens); conditions: 1 to 5 uM
# Description: Inhibition of MPO in human neutrophils assessed as reduction in HOCl production at 1 to 5 uM preincubated for 30 mins followed by H2O2 addition by APF staining based flow cytometry relative to control
smiles,measurement,setting,value
NNc1nncc2ccccc12 [HYDRALAZINE],Kapp,[1],7.1 ×10⁶ /M/s
same,IC50,Myeloperoxidase [2],2360 nM
same,Activity,[3],76%
same,Activity,[4],9%
same,Activity,[5],6%
same,Ratio IC50,[6],1.3
same,IC50,Lactoperoxidase,1200 nM
same,IC50,NHDF,> 50000 nM
COc1cc(N[C@H](C)CCCN)c2ncccc2c1,Activity,[3],86%
same,Activity,[4],91%
same,Activity,[5],86%
same,IC50,Myeloperoxidase [7],300 nM
same,Ratio IC50,[6],3
same,IC50,Lactoperoxidase,800 nM
same,IC50,NHDF,> 50000 nM
Cc1nc(N=C(N)N)nc2ccc(Br)cc12,IC50,Myeloperoxidase [7],756 nM
Cc1nc(N=C(N)N)nc2ccc(F)cc12,IC50,Myeloperoxidase [7],145 nM
Fc1ccc([C@@H]2CCNC[C@H]2COc2ccc3c(c2)OCO3)cc1 [PAROXETINE],IC50,Myeloperoxidase [7],20 nM
c1c2c(cc3c4n(nc13)CCS4)OCO2,IC50,Myeloperoxidase [7],85 nM
Cc1nc(NC(=N)N)nc2ccccc12,IC50,Myeloperoxidase [7],900 nM
NCCCCc1c[nH]c2ccc(F)cc12,IC50,Myeloperoxidase [7],8 nM
Cc1nc(N=C(N)N)nc2cc(F)ccc12,IC50,Myeloperoxidase [7],40 nM
same,Ratio IC50,[6],30
same,IC50,Lactoperoxidase,3900 nM
CSc1ccc2c(c1)N(CC[C@H]1CCCCN1C)c1ccccc1S2,Kapp,[1],5.2 ×10⁶ /M/s
same,Kapp,[8],1.7 ×10⁴ /M/s
same,IC50,Myeloperoxidase [7],> 5000 nM
same,inhibition,[9],24.2%
Cc1cccc(Nc2ccccc2C(=O)O)c1C [MEFENAMIC ACID],IC50,Myeloperoxidase [2],2210 nM
same,Activity,[3],87%
same,Activity,[4],82%
same,Activity,[5],87%
same,IC50,Myeloperoxidase [7],980 nM
Cc1ccc(-c2cc(C(F)(F)F)nn2-c2ccc(S(N)(=O)=O)cc2)cc1,inhibition,[9],11%
O=c1cc(-c2ccc(O)cc2)oc2cc(O)cc(O)c12 [APIGENIN],IC50,Myeloperoxidase [7],3800 nM
same,Ratio IC50,[6],5.6
same,IC50,Lactoperoxidase,17800 nM
Nc1cc(=O)[nH]c(CSc2ccc(F)c3ccccc23)n1,inhibition,[9],37.2%
Cc1nc(NC(=N)N)nc2cc(Br)ccc12,IC50,Myeloperoxidase [7],106 nM
CCN(CC)CCNC(=O)c1cc(Cl)c(N)cc1OC [METOCLOPRAMIDE],IC50,Myeloperoxidase [2],> 5000 nM
same,IC50,Myeloperoxidase [7],350 to 1000 nM
same,IC50,Lactoperoxidase,> 5000 nM
same,IC50,NHDF,> 50000 nM
same,concentration,Plasma,200 to 400 nM
O=c1c(O)c(-c2ccc(O)cc2)oc2cc(O)cc(O)c12 [KAEMPFEROL],Activity,[3],78%
same,Activity,[4],81%
same,Activity,[5],84%
same,IC50,Myeloperoxidase [7],2240 nM
CC(C)NCC(=O)c1nc2cc(F)ccc2[nH]1,Activity,[3],79%
same,Activity,[4],87%
same,Activity,[5],81%
same,IC50,Myeloperoxidase [7],130 nM
same,IC50,Lactoperoxidase,> 5000 nM
same,IC50,NHDF,> 50000 nM
Fc1ccc2oc([C@H]3CCNC3)nc2c1,IC50,Myeloperoxidase [7],1740 nM
same,IC50,NHDF,> 50000 nM
Cc1nc(N=C(N)N)nc2cc(Cl)ccc12,IC50,Myeloperoxidase [7],96 nM
Cc1nc(NC(=N)N)nc2ccc(Cl)cc12,IC50,Myeloperoxidase [7],630 nM
COc1ccc2c(C)nc(NC(=N)N)nc2c1,Kapp,[1],1.9 ×10⁶ /M/s
same,Activity,Neutrophil [10],Toxic
same,IC50,Myeloperoxidase [2],90 nM
same,Activity,[3],84%
same,Activity,[4],4%
same,Activity,[5],5%
same,IC50,Myeloperoxidase [7],44 nM
same,Ratio IC50,[6],73
same,Activity,Neutrophil [11],Non-Toxic
same,IC50,Myeloperoxidase [12],93100 nM
same,IC50,Lactoperoxidase,3200 nM
same,Activity,Neutrophil [13],> 50 µM
same,inhibition,[14],Active
same,IC50,NHDF,17000 nM
same,inhibition,[15],67 to 71%
CCn1cc(C(=O)O)c(=O)c2cc(F)c(N3CCN[C@@H](C)C3)c(F)c21,Kapp,[1],3.1 ×10⁴ /M/s
same,Kapp,[8],1.2 ×10³ /M/s
same,IC50,Myeloperoxidase [7],> 5000 nM
same,inhibition,[9],inactive
O=c1cc(-c2ccc(O)cc2)oc2cc(O)ccc12,IC50,Myeloperoxidase [7],5790 nM
O=c1c(O)c(-c2ccc(O)c(O)c2)oc2cc(O)cc(O)c12 [QUERCETIN],IC50,Myeloperoxidase [2],3100 nM
same,Activity,[3],72%
same,Activity,[4],78%
same,Activity,[5],79%
same,IC50,Myeloperoxidase [7],1150 nM
same,Ratio IC50,[6],5
same,IC50,Lactoperoxidase,6100 nM
same,IC50,NHDF,> 50000 nM
CN(C)CCCN1c2ccccc2Sc2ccc(C(F)(F)F)cc21,inhibition,[9],12.3%
O=C(N/N=C/c1ccc([N+](=O)[O-])o1)c1ccc(O)cc1 [NIFUROXAZIDE],IC50,Myeloperoxidase [7],> 5000 nM
N#CC1=C(N)Oc2cc(O)ccc2C1c1cccc(C(F)(F)F)c1 (stereo not drawn),IC50,Myeloperoxidase [7],10100 nM
C[C@H]1CN(c2cc3c(cc2F)c(=O)c(C(=O)O)cn3C2CC2)CCN1,IC50,Myeloperoxidase [7],> 5000 nM
CCN1CCC[C@H]1CNC(=O)c1cc(S(N)(=O)=O)ccc1OC [LEVOSULPIRIDE],IC50,Myeloperoxidase [7],7680 nM
Fc1ccc2[nH]c([C@@H]3CCN(CC4NC=CN4)C3)nc2c1,IC50,Myeloperoxidase [2],120 nM
same,Activity,[3],83%
same,Activity,[4],84%
same,Activity,[5],84%
same,IC50,Myeloperoxidase [7],50 nM
same,Activity,Neutrophil [11],Non-Toxic
same,IC50,Myeloperoxidase [12],314000 nM
same,IC50,Lactoperoxidase,> 5000 nM
same,Activity,Neutrophil [13],> 50 µM
same,IC50,NHDF,> 50000 nM
C[C@H](COc1ccccc1)N[C@@H](C)[C@@H](O)c1ccc(O)cc1,inhibition,[9],5.32%
O[C@@H]1CN[C@H](c2nc(Cc3ccc(F)cc3Cl)no2)C1,IC50,Myeloperoxidase [7],4680 nM
